This passage reports IC50 results from patent US6734194B2, “Method of use of (imidazol-5-yl)methyl-2-quinolinone derivatives to inhibit smooth muscle cell proliferation” (Janssen Pharmaceutica N.V., priority 1997, dated 2004).

Structures are written as SMILES. pIC50: −log10 of the molar value.

Holding throughout (assay type): cell-based
Test [1] relates to human coronary artery smooth muscle cells (CASMC). Put plainly: Inhibition of smooth muscle cell proliferation, CASMC. The settings on record: 144 h, CASMC cell line, incubated six days, Coulter cell count normalized to DMSO-treated controls, read-out: IC50 (concentration of test compound producing a 50% inhibition of cell proliferation). The text has this: (§1) The effects of the compounds of the present invention were studied in human pulmonary artery smooth muscle cells (PASMC), human coronary artery smooth muscle cells (CASMC), and rat A10 arterial smooth muscle cells growing under standard tissue culture conditions. CASMC and PASMC cell cultures were purchased from Clonetics (San Diego, Calif.). A10 smooth muscle cells were purchased from the American Type Culture Collection (Bethesda, Md.). Cells were inoculated at an initial cell density of 50,000 cells per well in six-well plastic cluster tissue culture dishes in 3.0 ml of complete growth medium. Test compounds were dissolved in dimethysulfoxide (DMSO) and added in a 3 μl volume to each well to produce the desired concentrations of said test compound (5, 10, 50, 100 and 500 nM final concentrations). Cells were incubated for six days. On day 4, fresh medium plus a fresh solution containing the test compound were added to the cell cultures. On day 6, the growth medium was removed by aspiration. The cells were detached by trypsinizing in 1.0 ml of trypsin-EDTA solution. The cell suspensions were transferred to 20 ml of an isotonic diluent and 0.5 ml of the diluted cell suspension was counted with a Coulter particle counter. Cell counts from test compound-treated cultures were normalized to cell counts obtained from DMSO-treated controls and expressed as percent inhibition. […]

For test [2], the system named is human pulmonary artery smooth muscle cells (PASMC). Put plainly: Inhibition of smooth muscle cell proliferation, PASMC. As to conditions: 144 h, PASMC cell line, incubated six days, Coulter cell count normalized to DMSO-treated controls, read-out: IC50 (concentration of test compound producing a 50% inhibition of cell proliferation).
Source text: as §1

Test [3] relates to rat A10 arterial smooth muscle cells. Put plainly: Inhibition of smooth muscle cell proliferation, A10 cells. The settings on record: 144 h, A10 cell line, incubated six days, Coulter cell count normalized to DMSO-treated controls, read-out: IC50 (concentration of test compound producing a 50% inhibition of cell proliferation).
Source text: as §1

On to `Cn1cncc1C(N)(c1ccc(Cl)cc1)c1ccc2c(c1)c(-c1cccc(Cl)c1)cc(=O)n2C` (single isomer, unassigned; (+)) [Co. No. 75, (+)-6-[amino(4-chloro-phenyl)(1-methyl-1H-imidazol-5-yl)methyl]-4-(3-chlorophenyl)-1-methyl-2(1H)-quinolinone], for which the pIC50 in test [1] is 7.80; in test [2], 7.62; in test [3], 7.85.
